Results on 85 molecules are retold here after ChEMBL document CHEMBL3988442, “University of Dundee, Small-Polar-MMV Screening Library” (2021).

Assay [1] in a line: microbe, parasite or virus in culture. To be noted: Mycobacterium tuberculosis, 96 h, read-out: pIC50 (converted).
The nature of assay [2]: microbe, parasite or virus in culture. The note with it: Mycobacterium tuberculosis, 72 h, read-out: pIC50 (converted).

A value given as a limit tells only on which side of the number the result lay.

Take `CCOC(=O)CNC(=O)c1ccc2c(c1)OCCO2`: the IC50 in assay [1] and in assay [2] was more than 501 µM in each case.
Take `COc1cccc2c1CCC2N` (stereo not given): the IC50 is more than 501 µM in assay [1] and 223 µM in assay [2].
In the same order, the values of `CC1=CC(=O)N(Cc2ccccc2)C1=O` are 81.5 µM and 49.8 µM.
Turning to `CNCC(O)CN1CCc2ccccc2CC1` (stereo not given), the IC50 in assay [1] is 289 µM; in assay [2], 254 µM.
On to `CCOCCC(=O)N(C)Cc1cc(C(C)C)no1`, for which the IC50 in assay [1] was 372 µM; in assay [2], 169 µM.
In the same order, the values of `Cc1ccc(C(=O)N2CCN(c3nccs3)CC2)o1` are 183 µM and 157 µM.
Taken in the same sequence, the figures for `COCCN(C)S(=O)(=O)c1cc(F)c(C)cc1F` were more than 501 µM and 465 µM.
Taken in the same sequence, the figures for `COc1ccc(Br)c(S(=O)(=O)N(C)C)c1` were more than 501 µM and 358 µM.
In the case of `OCCOCCSc1n[nH]c(-c2cc(F)cc(F)c2)n1`, the IC50 in assay [1] and in assay [2] was more than 501 µM throughout.
As to `COCCNC(=O)COc1ccc2c(c1)OCO2`, the IC50 in assay [1] is 62.9 µM; in assay [2], 128 µM.
`COc1cccc(CNCCn2cccn2)c1OC`: the IC50 in assay [1] is more than 501 µM; in assay [2], 196 µM.
In the same order, the values of `Cc1ccc(C(=O)Nc2cnn(C)c2)cn1` are more than 501 µM and more than 501 µM.
Regarding `CCC(C)c1cc(C(=O)Nc2ncccc2O)on1` (stereo not given), the IC50 in assay [1] is 268 µM; in assay [2], 178 µM.
Taken in the same sequence, the figures for `COC(=O)c1csc(NC(=O)CCn2cccn2)c1` were more than 501 µM and 303 µM.
Turning to `CN(Cc1ccco1)C(=O)c1cc(C2CC2)[nH]n1`, the IC50 in assay [1] was 59.3 µM; in assay [2], 107 µM.
In the same order, the values of `O=C(CSc1nnnn1Cc1cccs1)NC1CC1` are 216 µM and 492 µM.
Take `CC(Nc1cccc(OC(F)(F)F)c1)C(=O)NC(N)=O` (stereo not given): the IC50 was more than 501 µM in assay [1] and 184 µM in assay [2].
In the same order, the values of `OCCOCCN1CCC(=Cc2ccccc2)CC1` are 242 µM and 203 µM.
In the same order, the values of `COc1cc(OC)cc(N2CCCNCC2)c1` are 150 µM and 112 µM.
In the same order, the values of `Cc1ncsc1C(=O)NC1CCCCNC1=O` (stereo not given) are more than 501 µM and more than 501 µM.
In the case of `CN(C1CCCCC1)S(=O)(=O)NC1CCCCNC1=O` (stereo not given), the IC50 in assay [1] and in assay [2] was more than 501 µM in each case.
In the case of `COc1cccc(F)c1C(C)NC(=O)c1nccn1C` (stereo not given), the IC50 in assay [1] was 252 µM; in assay [2] it was 322 µM.
Consider `CS(=O)(=O)Cc1ccccc1NCc1ccsc1`, for which the IC50 is more than 501 µM in assay [1] and 220 µM in assay [2].
`C[S+]([O-])c1nncn1CCCOc1cccc(Cl)c1` (stereo not given): the IC50 was more than 501 µM in assay [1] and 341 µM in assay [2].
In the same order, the values of `CC(=O)Nc1ccc(C(=O)N(C)Cc2cccs2)cc1` are 272 µM and 307 µM.
In the same order, the values of `NCc1nc(-c2ccc(F)cc2)c[nH]1` are more than 501 µM and 222 µM.
Take `OC1CCN(Cc2cc(Cl)c3c(c2)OCCO3)CC1`: the IC50 in assay [1] and in assay [2] was more than 501 µM in each case.
Regarding `CCCn1nc(C(=O)NCc2csc(Br)c2)ccc1=O`, the IC50 is 154 µM in assay [1] and 222 µM in assay [2].
Taken in the same sequence, the figures for `CC(C)C(NS(=O)(=O)N1CCOCC1)c1ccccc1` (stereo not given) were more than 501 µM and more than 501 µM.
On to `CC(C)CC1CCN(S(N)(=O)=O)C1` (stereo not given), for which the IC50 in assay [1] and in assay [2] was more than 501 µM throughout.
`CCNC(=O)NCC(C)Oc1cccc(OC)c1` (stereo not given): the IC50 in assay [1] is 301 µM; in assay [2] it was 254 µM.
For the molecule `CCCS(=O)(=O)NCCOc1ccc(C#N)cc1`, the values for the IC50 in assay [1] and in assay [2] were 291 µM and 220 µM, respectively.
In the same order, the values of `NCc1nc(C(F)F)no1` are more than 501 µM and 289 µM.
For the molecule `Cn1ccc(C(=O)NCc2csc(Br)c2)cc1=O`, the IC50 in assay [1] and in assay [2] was more than 501 µM in each case.
In the case of `CCNC(=O)NC(=O)CN(C)Cc1ccccc1`, the IC50 is 134 µM in assay [1] and 171 µM in assay [2].
For `CCCS(=O)(=O)NCC(O)Cc1ccccc1` (stereo not given), the IC50 is 197 µM in assay [1] and 136 µM in assay [2].
As to `CNS(=O)(=O)CC1CCCN1c1ncc(Br)cn1` (stereo not given), the IC50 is more than 501 µM in assay [1] and 289 µM in assay [2].
`CCC1CN(C)c2ccccc2CN1CCC(=O)NC` (stereo not given): the IC50 in assay [1] and in assay [2] was more than 501 µM throughout.
In the case of `CN(Cc1ccsc1)C(=O)CNC(=O)c1ccc(Br)o1`, the figures for the IC50 in assay [1] and in assay [2] were 164 µM and 138 µM, respectively.
On to `CN(CCC(O)c1ccccc1)C(=O)c1cc(Cl)c[nH]1` (stereo not given), for which the IC50 in assay [1] was 485 µM; in assay [2], 237 µM.
Turning to `CCC(C)(C)NC(=O)c1nn(-c2ccccc2)nc1C`, the values for the IC50 in assay [1] and in assay [2] were 298 µM and 199 µM, respectively.
Taken in the same sequence, the figures for `Cn1ccnc1N1CCN(c2ccc(C#N)cn2)CC1` were more than 501 µM and more than 501 µM.
In the same order, the values of `Cc1cc(S(=O)(=O)NC2CCS(=O)(=O)C2)c(C)s1` (stereo not given) are 310 µM and 97.4 µM.
As to `O=C(CCC(=O)c1ccc(F)cc1)NCc1ccco1`, the IC50 in assay [1] is more than 501 µM; in assay [2], 219 µM.
Regarding `NC1(c2nc(C3CC3)cc(=O)[nH]2)CCCC1`, the IC50 is more than 501 µM in assay [1] and 304 µM in assay [2].
With `CN(C)C(=O)CCOC(=O)c1cccc(Cl)c1`, the IC50 in assay [1] is more than 501 µM; in assay [2], 227 µM.
Turning to `CS(=O)(=O)CCN1CCC(Oc2ccc(F)cc2)CC1`, the IC50 in assay [1] was 280 µM; in assay [2], 221 µM.
As to `O=C(NC1CCCc2occc21)c1cccnc1` (stereo not given), the IC50 in assay [1] was 79.9 µM; in assay [2], 57.8 µM.
In the case of `Nc1nc(-c2c(F)cccc2F)co1`, the IC50 in assay [1] and in assay [2] was more than 501 µM throughout.
Regarding `CCNC(=O)c1cc2ccc(OC)cc2[nH]1`, the IC50 in assay [1] is more than 501 µM; in assay [2], 283 µM.
On to `CC(C)C1CN(C(=O)CCc2ccccn2)CCS1` (stereo not given), for which the IC50 is 95.5 µM in assay [1] and 79.8 µM in assay [2].
In the same order, the values of `Cc1ccncc1NC1CS(=O)(=O)c2ccccc21` (stereo not given) are 43.2 µM and 27.1 µM.
In the same order, the values of `O=C(NCCOc1ncccc1Cl)c1ccsc1` are 145 µM and 470 µM.
Take `O=C(c1cc(Cl)c[nH]1)N1CCOC(c2cccs2)C1` (stereo not given): the IC50 was more than 501 µM in assay [1] and 50.5 µM in assay [2].
Take `Cc1ccc2oc(N3CCNCC3)nc2c1`: the values for the IC50 in assay [1] and in assay [2] were more than 501 µM and 190 µM, respectively.
Take `CC(CNC(=O)c1ccc(Cl)cn1)Cn1ccnc1` (stereo not given): the IC50 in assay [1] is 176 µM; in assay [2], 159 µM.
As to `CS(=O)(=O)N1CCC(Cc2ccccc2)C1` (stereo not given), the values for the IC50 in assay [1] and in assay [2] were 467 µM and 482 µM, respectively.
Taken in the same sequence, the figures for `CC(C(=O)NCc1cccs1)S(=O)(=O)C1CCCC1` (stereo not given) were more than 501 µM and 164 µM.
For `COc1ccc(CNC(=O)CNC2CCCSC2)cc1` (stereo not given), the IC50 is 37.4 µM in assay [1] and more than 501 µM in assay [2].
Take `CC(C)NC(=O)NC(C)c1ccccc1` (stereo not given): the IC50 in assay [1] and in assay [2] was more than 501 µM throughout.
As to `CC1Cc2ccccc2N(C(=O)c2csnn2)C1` (stereo not given), the IC50 in assay [1] and in assay [2] was more than 501 µM each time.
Take `CC(C)Nc1cc(Cl)ccc1OCCS(C)(=O)=O`: the IC50 in assay [1] is 222 µM; in assay [2], 191 µM.
For the molecule `Cn1cc(Br)cc1C(=O)NCCCNc1ncccn1`, the IC50 in assay [1] was more than 501 µM; in assay [2] it was 292 µM.
With `O[C@@H]1CNC[C@H](O)C1`, the IC50 in assay [1] and in assay [2] was more than 501 µM in each case.
As to `CCCOc1ccc(NS(=O)(=O)N(C)C)cc1Cl`, the IC50 in assay [1] was more than 501 µM; in assay [2], 196 µM.
For the molecule `CC(Oc1ccc(Cl)cc1)C(=O)N(C)C` (stereo not given), the IC50 in assay [1] and in assay [2] was more than 501 µM each time.
As for `CN(C)C(CN)c1ccc(F)cc1` (stereo not given), the IC50 in assay [1] is more than 501 µM; in assay [2] it was 244 µM.
Taken in the same sequence, the figures for `Cn1cc(NC(=O)C2=Cc3ccccc3OC2)cn1` were more than 501 µM and more than 501 µM.
Taken in the same sequence, the figures for `Cc1ccc(-n2nnnc2NC2CC2)cc1` were more than 501 µM and 263 µM.
Taken in the same sequence, the figures for `CSc1cc(NC(=O)NCCc2ccccn2)ccn1` were 438 µM and 411 µM.
Turning to `Nc1cc(-c2ccc(I)cc2)nn1CCO`, the IC50 in assay [1] and in assay [2] was more than 501 µM each time.
As to `CCc1noc(Cn2cnc3ccccc3c2=O)n1`, the IC50 in assay [1] and in assay [2] was more than 501 µM each time.
As for `CC(C)NC(=O)NCC1(N2CCOCC2)CCSC1` (stereo not given), the IC50 in assay [1] and in assay [2] was more than 501 µM each time.
`CN(C)C(=O)c1csc2c1CCCC2`: the IC50 in assay [1] is 186 µM; in assay [2], 271 µM.
Taken in the same sequence, the figures for `CC(O)CN1C(=O)C=CC1=O` (stereo not given) were 286 µM and 135 µM.
In the same order, the values of `OCCN1CCN(c2nc(-c3ccccc3)no2)CC1` are more than 501 µM and 83.7 µM.
In the same order, the values of `O=C(NCc1ccc2c(c1)OCO2)Nc1nccs1` are more than 501 µM and more than 501 µM.
For `Cc1cc(NC(=O)Cc2ccc3c(c2)OCCO3)no1`, the values for the IC50 in assay [1] and in assay [2] were more than 501 µM and 271 µM, respectively.
In the same order, the values of `Cc1ncsc1C(=O)NC(C)C(C)C` (stereo not given) are more than 501 µM and more than 501 µM.
With `NC1CCN(Cc2ccccc2F)CC1`, the IC50 in assay [1] and in assay [2] was more than 501 µM in each case.
As for `CSCCOC(=O)c1ccn(C(C)C)n1`, the IC50 in assay [1] was 248 µM; in assay [2], 241 µM.
For the molecule `CN(Cc1cccc(C(N)=O)c1)C(=O)c1occc1Br`, the IC50 in assay [1] and in assay [2] was more than 501 µM each time.
As for `CC(C(N)=O)N1CCC(=Cc2ccccc2)CC1` (stereo not given), the values for the IC50 in assay [1] and in assay [2] were 364 µM and 290 µM, respectively.
Taken in the same sequence, the figures for `NC(=O)CN1CCC(COCc2ccccc2)C1` (stereo not given) were 292 µM and 268 µM.
In the case of `O=S(=O)(CCN1CCCC(O)C1)c1ccc(Br)cc1` (stereo not given), the IC50 is 174 µM in assay [1] and 359 µM in assay [2].
